Read-outs that look alike come from different tables or passages of the source. One block for each compound: values may come before it.
Key:
[1] = Intestinal stability, mouse intestinal S9; type: in vitro ADME; conditions: intestinal S9 fraction
Experimental: (§1) The stability of compounds 1 and 2, and the control compound 7-hydroxycoumarin, were measured using human, rat, and mouse intestinal S9 fractions (Xenotech). Test compound working solutions were prepared by diluting 5 μL of 10 mM stock solutions in DMSO with 495 μL AN. S9 solutions were prepared by diluting the obtained S9 solutions to 1.0 mg/mL in 100 mM potassium phosphate buffer at pH 7.4 containing 10 mM D-saccharic acid-1,4-lactone. An Apricot automation workstation was used to add 100 μL/well of S9 solution to all reaction plates (Blank, T0, T5, T15, T30, T45, T60 and NCF60); 2 μL/well of compound working solutions were added to all 96-well reaction plates except the blank (T0, T5, T15, T30, T45, T60, and NCF60); 600 μL/well of stop solution (4° C. ACN containing 200 ng/mL tolbutamide and 200 ng/mL labetalol as internal standards) was added to the T0 reaction plate; all plates were pre-incubated at 37° C. for 10 minutes; a cofactor regenerating system (98 μL/well) was added, excluding the NCF60 plate which instead received 98 μL/well of 100 mM potassium phosphate buffer. All plates were then incubated at 37° C. To terminate reactions, 600 μL/well of stop solution was applied at specific end time points. After sealing and a 10-minute shaking, plates were centrifuged at 4000 rpm and 4° C. for 20 minutes. Concurrently, 300 μL/well of HPLC grade water was loaded onto eight new 96-well bioanalysis plates. Post-centrifugation, 100 μL supernatant from each reaction plate was transferred to its corresponding bioanalysis plate, shaken for 10 minutes, and then subjected to LC-MS/MS analysis (Shimadzu LC-40D LC system coupled to a Sciex Qtrap 6500 Plus mass spectrometer, using both positive and negative ion modes).

[2] = Conjugate formation in intestinal S9 incubations; type: in vitro ADME, human, rat, mouse
Experimental: as §1, with “Concurrently, 300 μL/well of HPLC grade water was loaded onto eight new 96-well bioanalysis plates. Post-centrifugation, 100 μL supernatant from each reaction plate was transferred to its corresponding bioanalysis plate, shaken for 10 minutes, and then subjected to LC-MS/MS analysis (Shimadzu LC-40D LC system coupled to a Sciex Qtrap 6500 Plus mass spectrometer, using both positive and negative ion modes).” left out

[3] = Thermodynamic solubility in FaSSIF; type: physicochemical; conditions: thermodynamic from solid, room temperature, 24 hours shaking
Experimental: After shaking, the samples were centrifuged at 25° C. for 20 minutes at 4000 rpm. Filtrates were prepared using the Whatman Mini-UniPrep Syringeless Filter Device (PTFE filter media with polypropylene housing, pore size 0.45 μm) from Cytiva, and dilutions were performed as required. Quantification of all samples was carried out using an LC-UV system.

[4] = Intestinal stability, human intestinal S9; type: in vitro ADME
Experimental: as §1

[5] = Stability in simulated gastric fluid (SGF); type: in vitro ADME; conditions: SGF pH 1.2, 37° C., 2 μM
Experimental: The stability of compounds 1 to 4, and the control compound omeprazole, were measured in simulated gastric fluid (SGF: 0.2% w/v sodium chloride, 0.7% v/v hydrochloric acid, and 0.32% w/v pepsin in deionized water, pH 1.2±0.05). Stock solutions of the compounds (10 mM) were diluted to 200 μM in DMSO, then duplicate 2 μL aliquots added to 96-well plates for time points 0, 1, 2, 6, and 24 hours. SGF (198 μL) was added to all wells except those for time 0, to give a starting compound concentration of 2 μM; and the samples were incubated at 37° C. with agitation at 600 rpm for the prescribed times. After incubation, 200 μL of each sample was extracted and mixed with 400 μL cold ACN containing 200 ng/mL tolbutamide and labetalol as internal standards. The samples were centrifuged at […] for 20 minutes at 4° C., and the supernatants (60 μL) each diluted with purified water (180 μL) for LC/MS/MS analysis. The percentage of the test compound remaining at each time point was calculated based on the ratio of the peak area of the analyte to the internal standards.

[6] = Pharmacokinetics in the rat, dosing in solution; conditions: in vivo
[7] = Intestinal stability, rat intestinal S9; type: in vitro ADME
Experimental: as §1

[8] = test system: rats with cerulein (AEP) or sodium taurocholate (ANP) induced pancreatitis; conditions: Xia et al.; cited from earlier work
[9] = Pharmacokinetics in the rat, solid form (powder in mini-capsules); type: in vivo
log P = type: physicochemical
postmenopausal women = conditions: 54 mg per day, cited from earlier work
[10] = test system: rat model of monocrotaline-induced pulmonary hypertension; conditions: Matori et al.; cited from earlier work
[11] = test system: children with Sanfillipo syndrome; conditions: 160 mg/kg/day for 12 months, median age 7.2 years; cited from earlier work
[12] = test system: mice with L-arginine induced acute pancreatitis; conditions: Siriviriyakul et al., cited from earlier work
[13] = molecular target: transthyretin tetramer (TTR) (Homo sapiens, UniProt P02766); conditions: Green et al.; cited from earlier work
[14] = test system: transthyretin tetramer (TTR); conditions: Green et al.; cited from earlier work
healthy volunteers = conditions: amorphous solid dispersion, single doses 500 to 3000 mg, then 3000 mg over six consecutive days; cited from earlier work
[15] = test system: Db/Db mice fed a high fat diet; experiment: Genistein in Db/Db mice fed a high fat diet; type: in vivo, mouse; conditions: high fat diet 6 weeks, then oral gavage 50 mg/Kg genistein in corn oil for 47 days
[16] = molecular target: G protein-coupled estrogen receptor (Homo sapiens, UniProt Q99527); conditions: cited from earlier work
Sequence of G protein-coupled estrogen receptor (Q99527 whole entry): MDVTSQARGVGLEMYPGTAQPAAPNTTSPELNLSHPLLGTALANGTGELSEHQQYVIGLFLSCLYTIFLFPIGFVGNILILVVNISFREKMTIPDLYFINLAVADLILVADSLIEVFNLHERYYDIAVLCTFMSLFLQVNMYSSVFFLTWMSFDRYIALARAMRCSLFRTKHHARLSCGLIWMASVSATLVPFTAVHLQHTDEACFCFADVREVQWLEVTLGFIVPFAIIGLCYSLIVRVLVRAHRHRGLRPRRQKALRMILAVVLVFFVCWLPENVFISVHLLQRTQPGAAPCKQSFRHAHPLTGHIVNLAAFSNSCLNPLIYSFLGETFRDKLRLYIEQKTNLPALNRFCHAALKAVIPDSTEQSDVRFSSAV

[17] = test system: wild-type mice fed a high fat diet; experiment: Genistein in wild-type mice fed a high fat diet; type: in vivo, mouse; conditions: high fat diet 12 weeks, then intraperitoneal 200 mg/Kg genistein in corn oil for 14 days
mdx mice = conditions: Messina et al., cited from earlier work
[18] = test system: patients with bladder cancer; conditions: 300 and 600 mg daily for 21 days; cited from earlier work
[19] = Wang et al.; cited from earlier work
[20] = intestinal S9 fraction, pH 7.4, read-out: intrinsic clearance rate
[21] = solid form, genistein 71 mg/Kg together with 14.2 mg/Kg inulin

SMILES: CC(C)(CCCOP(=O)(O)O)C(=O)Oc1ccc(-c2coc3cc(O)cc(O)c3c2=O)cc1 [Compound 4, 4-(5,7-Dihydroxy-4-oxo-4H-chromen-3-yl)phenyl 2,2-dimethyl-5-(phosphonooxy)pentanoate]
solubility at 24 h ([3]; read-out: Solubility): 0.612 mM | solubility at 24 h ([3]; read-out: Solubility (μg/mL)): 293 µg/mL | Percentage remaining at time: 1 hour [5]: 104% | Percentage remaining at time: 2 hours [5]: 110% | Percentage remaining at time: 6 hours [5]: 114% | Percentage remaining at time: 24 hours [5]: 106% | Percentage remaining at time: 0 [5]: 100%

SMILES: O=c1c(-c2ccc(O)cc2)coc2cc(O)cc(O)c12 [Genistein, 5,7-dihydroxy-3-(4-hydroxyphenyl)-4H-chromen-4-one]
necrosis, edema and inflammatory infiltration compared to the experimental models [8]: mitigated | AUC(0-t) ([9]; male, SD, rat, in vivo, po, 71 mg/kg, solid form, genistein 71 mg/Kg alone, considerable variability, read-out: mean AUC0-last of dosed compound in plasma): ~500 ng·h/mL | AUC(0-t) ([9]; male, SD, rat, in vivo, po, 71 mg/kg, solid form, genistein 71 mg/Kg together with 14.2 mg/Kg inulin, read-out: mean AUC0-last with addition of inulin): ~300 ng·h/mL | Cmax ([9]; male, SD, rat, in vivo, po, 71 mg/kg, read-out: mean cmax of dosed compound in plasma): ~160 ng/mL | Tmax ([9]; male, SD, rat, in vivo, po, 71 mg/kg, read-out: mean tmax of dosed compound in plasma): ~180 min | half-life ([9]; male, SD, rat, in vivo, po, read-out: mean t1/2 of dosed compound in plasma (converted)): ~120 min | effect of inulin on the peak [9, 21]: slightly reducing | time of peak with addition of inulin [9, 21]: around 5 hours | logP (log P): 3.04 | solubility at 24 h ([3]; read-out: Solubility): 0.027 mM | solubility at 24 h ([3]; read-out: Solubility (μg/mL)): 7.29 µg/mL | bone mineral density at femoral neck and lumbar spine (postmenopausal women; after 36 months): greater increases | mammographic breast density, endometrial thickness, expression of BRCA1 and BRCA2 (postmenopausal women; after 36 months): no significant changes | sister chromatid exchange compared to placebo (postmenopausal women; after 36 months): reducing | discomfort or adverse events between participants (postmenopausal women): No differences | monocrotaline-induced preexisting PH [10]: reversed | progression of severe PH to right heart failure [10]: prevented | right ventricular ejection fraction [10]: restoring | right ventricular pressure [10]: reducing | adverse effects [11]: No treatment-specific severe adverse effects were reported | edema, necrosis and cell death induced by L-arginine ([12]; 10 mg/Kg/day and 100 mg/Kg/day): significantly reducing | serum amylase, IL-6 and CRP levels ([12]; 10 mg/Kg/day and 100 mg/Kg/day): significantly reduced | NF-κB and 4-HNE expression [12]: curbing | acid-mediated fibril formation, of that exhibited by TTR alone [13]: < 10% | binding to TTR in plasma over all of the other plasma proteins [13]: highly selective binding | amyloidogenesis of TTR mutations V30M and V122I [14]: inhibits | adverse effects (healthy volunteers): No significant adverse effects were reported, other than instances of diarrhea, headache or nausea at the highest dosages | reduction of HbA1C [15]: ~37% | reduction of fasting blood glucose [15]: ~57% | affinity, agonist of G protein-coupled estrogen receptor [16]: 133 nM | reduction of fasting blood glucose [17]: ~30% | markers of oxidative stress (mdx mice): reduced | muscle necrosis (mdx mice): reduced | muscle regeneration (mdx mice): enhanced | serum creatine-kinase levels (mdx mice): reduced | forelimb strength and strength normalized to weight (mdx mice; five-week old mdx mice, five weeks, daily or 3-times/week): increased | tolerability [18]: well tolerated, with no to mild side effects | AUC(0-t) ([6]; solution, 25 mg/Kg nominal, fasted male SD rat, read-out: mean AUC0-last of dosed compound in plasma): ~500 ng·h/mL | Cmax ([6]; solution, 25 mg/Kg nominal, fasted male SD rat, read-out: mean cmax of dosed compound in plasma): ~300 ng/mL | half-life ([6]; solution, 25 mg/Kg nominal, fasted male SD rat, read-out: mean t1/2 of dosed compound in plasma (converted)): ~78 min | Tmax ([6]; solution, 25 mg/Kg nominal, fasted male SD rat, read-out: mean tmax of dosed compound in plasma (converted)): 10 min

SMILES: O=c1c(-c2ccc(O)cc2)coc2cc(OP(=O)(O)O)cc(O)c12 [Genistein-7-O-phosphate, genistein 7-O-phosphate, reference compound]
bioavailability [19]: more bioavailable than aglyconic genistein | water solubility [19]: practically water soluble | solubility at 24 h ([3]; read-out: Solubility): 3.57 mM | solubility at 24 h ([3]; read-out: Solubility (μg/mL)): 1250 µg/mL

SMILES: COc1ccc2[nH]c([S+]([O-])Cc3ncc(C)c(OC)c3C)nc2c1 (centres unmarked) [Omeprazole, omeprazole, reference compound]
Percentage remaining at time: 1 hour [5]: 35.4% | Percentage remaining at time: 2 hours [5]: 23.1% | Percentage remaining at time: 6 hours [5]: 4.2% | Percentage remaining at time: 24 hours [5]: 0% | Percentage remaining at time: 0 [5]: 100%

Now from value to compound:

half-life at 1 µM ([1]; pH 7.4): 29.7 min | microsomal CLint at 1 µM ([1]; pH 7.4, read-out: intrinsic clearance rate): 46.7 µL/min/mg | formation of glucuronidation, sulfation, and glutathione conjugates [2]: noticeable absence | solubility at 24 h ([3]; read-out: Solubility): 12.5 mM | solubility at 24 h ([3]; read-out: Solubility (μg/mL)): 4770 µg/mL | normalized control factor remaining [4]: 24.9% | half-life at 1 µM ([4]; intestinal S9 fraction, pH 7.4): 28.7 min | microsomal CLint at 1 µM [4, 20]: 48.4 µL/min/mg | Percentage remaining at time: 1 hour [5]: 94.4% | Percentage remaining at time: 2 hours [5]: 91.5% | Percentage remaining at time: 6 hours [5]: 83.8% | Percentage remaining at time: 24 hours [5]: 42.1% | Percentage remaining at time: 0 [5]: 100% | Cmax ([6]; male, SD, rat, 25 mg/kg): ~15 ng/mL | Tmax ([6]; male, SD, rat, 25 mg/kg): ~8 min | decline of plasma concentration of dosed compound ([6]; rat, 25 mg/kg): very rapid decline in concentration | normalized control factor remaining [7]: 30.4% | half-life at 1 µM ([7]; intestinal S9 fraction, pH 7.4): 2.6 min | microsomal CLint at 1 µM [7, 20]: 526 µL/min/mg
SMILES: O=c1c(-c2ccc(OCOP(=O)(O)O)cc2)coc2cc(O)cc(O)c12 [Compound 1, (4-(5,7-Dihydroxy-4-oxo-4H-chromen-3-yl)phenoxy)methyl dihydrogen phosphate]

solubility at 24 h ([3]; read-out: Solubility): 10.2 mM | solubility at 24 h ([3]; read-out: Solubility (μg/mL)): 5000 µg/mL | Percentage remaining at time: 1 hour [5]: 95.1% | Percentage remaining at time: 2 hours [5]: 101% | Percentage remaining at time: 6 hours [5]: 96.1% | Percentage remaining at time: 24 hours [5]: 51.4% | Percentage remaining at time: 0 [5]: 100%
SMILES: O=c1c(-c2ccc(OCOP(=O)(O)O)cc2)coc2cc(OCOP(=O)(O)O)cc(O)c12 [Compound 3, ((5-Hydroxy-4-oxo-3-(4-((phosphonooxy)methoxy)phenyl)-4H-chromen-7-yl)oxy)methyl dihydrogen phosphate]

— patent US20250170154A1 (GreenStone Biosciences, Inc., priority 2023, published 2025)
